Results as given in article PMC6598542, “Synthesis of a new series of 3-functionalised-1-phenyl-1,2,3-triazole sulfamoylbenzamides as carbonic anhydrase I, II, IV and IX inhibitors” (Journal of Enzyme Inhibition and Medicinal Chemistry, 2019).
Read-outs that look alike come from different tables or passages of the source.

How the values were obtained:
hCA I = target: T1, hCA I (Homo sapiens, UniProt P00915); assay: stopped-flow CO2 hydration; type: biochemical
T1 construct: gene CA1; recombinant, cytosolic isoform
T1 sequence (P00915 2-261): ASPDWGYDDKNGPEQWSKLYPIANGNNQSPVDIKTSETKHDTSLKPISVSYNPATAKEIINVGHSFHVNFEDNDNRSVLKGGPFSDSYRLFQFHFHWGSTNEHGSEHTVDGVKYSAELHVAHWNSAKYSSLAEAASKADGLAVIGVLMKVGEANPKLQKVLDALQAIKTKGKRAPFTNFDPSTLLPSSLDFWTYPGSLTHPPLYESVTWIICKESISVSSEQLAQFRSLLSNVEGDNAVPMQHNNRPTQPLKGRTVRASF
Procedure, shortened: (§1)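 Ki values for recombinant human isozymes were derived from a stopped-flow CO2 hydration assay by non-linear least squares with the Cheng-Prusoff equation. After 10 min preincubation with inhibitor at room temperature, reactions ran for 5–10 s at 25 °C in 10 mM Hepes pH 7.4, 0.1 M Na2SO4 or NaClO4 and 0.2 mM Phenol Red (557 nm), with CO2-saturated water as substrate. Values are means of at least three determinations over at least seven inhibitor concentrations down to 0.01 nM.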

hCA II = target: T2, hCA II (Homo sapiens, UniProt P00918); assay: stopped-flow CO2 hydration; type: biochemical; conditions: read-out: hCAII
T2 construct: gene CA2; recombinant, cytosolic isoform
Procedure, shortened: as §1

hCA IX = target: T3, hCA IX (Homo sapiens, UniProt Q16790); assay: stopped-flow CO2 hydration; type: biochemical
T3 construct: gene CA9; recombinant, transmembrane isoform
Procedure, shortened: as §1

hCA IV [1] = target: T4, hCA IV (Homo sapiens, UniProt P22748); assay: biochemical; design: Stopped-flow CO2 hydration assay, phenol red at 557 nm, 10 min preincubation, recombinant hCA; Ki via Cheng-Prusoff
T4 construct: gene CA4
T4 sequence (P22748 19-284): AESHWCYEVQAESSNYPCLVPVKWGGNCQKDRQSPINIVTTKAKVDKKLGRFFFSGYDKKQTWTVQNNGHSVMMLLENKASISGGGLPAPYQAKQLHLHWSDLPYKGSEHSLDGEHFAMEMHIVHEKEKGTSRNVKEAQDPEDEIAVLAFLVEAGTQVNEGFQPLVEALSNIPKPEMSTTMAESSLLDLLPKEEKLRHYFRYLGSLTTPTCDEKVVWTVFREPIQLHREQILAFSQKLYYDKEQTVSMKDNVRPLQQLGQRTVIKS
Protocol: An SX.18 MV-R Applied Photophysics (Oxford, UK) stopped-flow instrument has been used for assaying the CA catalyzed CO2 hydration activity. Phenol Red (at a concentration of 0.2 mM) has been used as indicator, working at the absorbance maximum of 557 nm, with 10 mM Hepes (pH 7.4) as buffer, 0.1 M Na2SO4 or NaClO4 (for maintaining constant the ionic strength; these anions are not inhibitory in the used concentration), following the CA-catalyzed CO2 hydration reaction for a period of 5–10 s. Saturated CO2 solutions in water at 25 °C were used as substrate. Stock solutions of inhibitors were prepared at a concentration of 10 μM (in DMSO-water 1:1, v/v) and dilutions up to 0.01 nM done with the assay buffer mentioned above. At least seven different inhibitor concentrations have been used for measuring the inhibition constant. Inhibitor and enzyme solutions were preincubated together for 10 min at room temperature prior to assay, in order to allow for the formation of the E-I complex. Triplicate experiments were done for each inhibitor concentration, and the values reported throughout the paper are the mean of such results. The inhibition constants were obtained by non-linear least-squares methods using the Cheng-Prusoff equation, as reported earlier, and represent the mean from at least three different determinations. All CA isozymes used here were recombinant proteins obtained as reported earlier by our group[10]^c,[25]^,[26]. The newly synthesised compounds 3-sulfamoylbenzamide linked 1,2,3-triazoles (Figure 4) (6a–z) as well as the intermediates (3a–d) and (4a–d) (listed in Table 1) were screened for their CA inhibitory activities against four physiologically significant isoforms, the cytosolic hCA I (associated with edema) and II (associated with glaucoma) as well as the membrane bound hCA IV (associated with glaucoma and retinitis pigmentosa) and transmembrane hCA IX (associated with tumors) by means of the stopped flow carbon dioxide assays[29] in comparison to AAZ as standard CAI (Table 2).

hCA IV [2] = target: T4, hCA IV; assay: stopped-flow CO2 hydration; type: biochemical
Procedure, shortened: as §1

[3] = CO2 substrate, pH […] Hepes, […] °C, […] min preincubation

Ki (hCA I) [nM] | Ki (hCA II) [nM] | Ki (hCA IX) [nM] | Ki (hCA IV [1]) [nM] | Ki (hCA IV [2]) [nM] | Ki (hCA I; [3]) [nM] | Ki (hCA II; [3]) [nM] | Ki (hCA IX; [3]) [nM] | Structure (SMILES)
8770 | 8660 | 9420 |  |  |  |  |  | NS(=O)(=O)c1cccc(C(=O)O)c1 [3a, 3-Sulfamoylbenzoic acid]
8850 | 1380 | 8980 | 2470 |  |  |  |  | NS(=O)(=O)c1cc(C(=O)O)ccc1Cl [3b, 4-Chloro-3-sulfamoylbenzoic acid]
5750 | 760 | 9570 | 958 |  |  |  |  | NS(=O)(=O)c1cc(C(=O)O)ccc1F [3c, 4-Fluoro-3-sulfamoylbenzoic acid]
9760 | 9180 | 9670 | 8780 |  |  |  |  | COc1ccc(C(=O)O)cc1S(N)(=O)=O [3d, 4-Methoxy-3-sulfamoylbenzoic acid]
9280 | 514 | 9360 | 8460 |  |  |  |  | C#CCNC(=O)c1cccc(S(N)(=O)=O)c1 [4a, N-(prop-2-yn-1-yl)-3-sulfamoylbenzamide]
4930 | 73.5 | 447 |  | 78.8 |  |  |  | C#CCNC(=O)c1ccc(Cl)c(S(N)(=O)=O)c1 [4b, 4-Chloro-N-(prop-2-yn-1-yl)-3-sulfamoylbenzamide]
747 | 165 | 816 |  | 429 |  |  |  | C#CCNC(=O)c1ccc(F)c(S(N)(=O)=O)c1 [4c, 4-Fluoro-N-(prop-2-yn-1-yl)-3-sulfamoylbenzamide]
9500 | 5530 | 9220 | 6840 |  |  |  |  | C#CCNC(=O)c1ccc(OC)c(S(N)(=O)=O)c1 [4d, 4-Methoxy-N-(prop-2-yn-1-yl)-3-sulfamoylbenzamide]
753 | 4490 | 7980 | 9420 |  |  |  |  | NS(=O)(=O)c1cccc(C(=O)NCc2cn(-c3ccccc3)nn2)c1 [6a, N-((1-phenyl-1H-1,2,3-triazol-4-yl)methyl)-3-sulfamoylbenzamide]
855 | 8970 | 4900 |  |  |  |  |  | COc1cc(-n2cc(CNC(=O)c3cccc(S(N)(=O)=O)c3)nn2)cc(OC)c1OC [6b, 3-Sulfamoyl-N-((1–(3,4,5-trimethoxyphenyl)-1H-1,2,3-triazol-4-yl)methyl)benzamide]
952 | 9270 | 6920 |  |  |  |  |  | NS(=O)(=O)c1cccc(C(=O)NCc2cn(-c3cccc([N+](=O)[O-])c3)nn2)c1 [6c, N-((1–(3-nitrophenyl)-1H-1,2,3-triazol-4-yl)methyl)-3-sulfamoylbenzamide]
867 | 2970 | 7420 | 8840 |  |  |  |  | NS(=O)(=O)c1cccc(C(=O)NCc2cn(-c3cccc(F)c3)nn2)c1 [6d, N-((1–(3-fluorophenyl)-1H-1,2,3-triazol-4-yl)methyl)-3-sulfamoylbenzamide]
431 | 2360 | 3190 | 9300 |  |  |  |  | N#Cc1cccc(-n2cc(CNC(=O)c3cccc(S(N)(=O)=O)c3)nn2)c1 [6e, N-((1–(3-cyanophenyl)-1H-1,2,3-triazol-4-yl)methyl)-3-sulfamoylbenzamide]
 |  |  |  |  | 888 | 9010 | 6750 | COc1ccc(-n2cc(CNC(=O)c3cccc(S(N)(=O)=O)c3)nn2)cc1 [6f, N-((1–(4-methoxyphenyl)-1H-1,2,3-triazol-4-yl)methyl)-3-sulfamoylbenzamide]
448 | 366 | 6130 | 8580 |  |  |  |  | Cc1cccc(-n2cc(CNC(=O)c3cccc(S(N)(=O)=O)c3)nn2)c1C [6g, N-((1–(2,3-dimethylphenyl)-1H-1,2,3-triazol-4-yl)methyl)-3-sulfamoylbenzamide]
693 | 516 | 226 | 1760 |  |  |  |  | Cc1ccc(-n2cc(CNC(=O)c3cccc(S(N)(=O)=O)c3)nn2)c(C)c1 [6h, N-((1–(2,4-dimethylphenyl)-1H-1,2,3-triazol-4-yl)methyl)-3-sulfamoylbenzamide]
312 | 71.2 | 84.4 |  | 170 |  |  |  | NS(=O)(=O)c1cc(C(=O)NCc2cn(-c3ccccc3)nn2)ccc1Cl [6i, 4-Chloro-N-((1-phenyl-1H-1,2,3-triazol-4-yl)methyl)-3-sulfamoylbenzamide]
479 | 51.4 | 212 |  | 2280 |  |  |  | COc1cc(-n2cc(CNC(=O)c3ccc(Cl)c(S(N)(=O)=O)c3)nn2)cc(OC)c1OC [6j, 4-Chloro-3-sulfamoyl-N-((1–(3,4,5-trimethoxyphenyl)-1H-1,2,3-triazol-4-yl)methyl)-benzamide]
86.7 | 56.5 | 41.6 |  | 80 |  |  |  | COc1ccc(-n2cc(CNC(=O)c3ccc(Cl)c(S(N)(=O)=O)c3)nn2)cc1 [6k, 4-Chloro-N-((1–(4-methoxyphenyl)-1H-1,2,3-triazol-4-yl)methyl)-3-sulfamoylbenzamide]
811 | 7.8 | 34.6 |  | 89.9 |  |  |  | NS(=O)(=O)c1cc(C(=O)NCc2cn(-c3ccc(C(F)(F)F)cc3)nn2)ccc1Cl [6m, 4-Chloro-3-sulfamoyl-N-((1–(4-(trifluoromethyl)phenyl)-1H-1,2,3-triazol-4-yl)methyl)benzamide]
890 | 49.7 | 84.5 |  | 240 |  |  |  | NS(=O)(=O)c1cc(C(=O)NCc2cn(-c3ccccc3)nn2)ccc1F [6n, 4-Fluoro-N-((1-phenyl-1H-1,2,3-triazol-4-yl)methyl)-3-sulfamoylbenzamide]
69.2 | 73.5 | 63.1 |  | 175 |  |  |  | COc1ccc(-n2cc(CNC(=O)c3ccc(F)c(S(N)(=O)=O)c3)nn2)cc1 [6o, 4-Fluoro-N-((1–(4-methoxyphenyl)-1H-1,2,3-triazol-4-yl)methyl)-3-sulfamoylbenzamide]
369 | 91.1 | 235 |  | 91.8 |  |  |  | NS(=O)(=O)c1cc(C(=O)NCc2cn(-c3ccc(C(F)(F)F)cc3)nn2)ccc1F [6p, 4-Fluoro-3-sulfamoyl-N-((1–(4-(trifluoromethyl)phenyl)-1H-1,2,3-triazol-4-yl)methyl)benzamide]
681 | 2900 | 703 | 9350 |  |  |  |  | COc1ccc(C(=O)NCc2cn(-c3ccccc3)nn2)cc1S(N)(=O)=O [6u, 4-Methoxy-N-((1-phenyl-1H-1,2,3-triazol-4-yl)methyl)-3-sulfamoylbenzamide]
572 | 9650 | 6820 | 5350 |  |  |  |  | COc1ccc(C(=O)NCc2cn(-c3ccc(F)cc3)nn2)cc1S(N)(=O)=O [6v, N-((1–(4-fluorophenyl)-1H-1,2,3-triazol-4-yl)methyl)-4-methoxy-3-sulfamoylbenzamide]
967 | 4160 | 526 | 7620 |  |  |  |  | COc1ccc(C(=O)NCc2cn(-c3ccc(C)cc3)nn2)cc1S(N)(=O)=O [6w, 4-Methoxy-3-sulfamoyl-N-((1-(p-tolyl)-1H-1,2,3-triazol-4-yl)methyl)benzamide]
7560 | 6390 | 93.8 | 9340 |  |  |  |  | COc1ccc(C(=O)NCc2cn(-c3ccc(C)cc3C)nn2)cc1S(N)(=O)=O [6x, N-((1–(2,4-dimethylphenyl)-1H-1,2,3-triazol-4-yl)methyl)-4-methoxy-3-sulfamoylbenzamide]
555 | 2330 | 1870 | 9080 |  |  |  |  | COc1ccc(C(=O)NCc2cn(-c3ccc(Br)cc3)nn2)cc1S(N)(=O)=O [6y, N-((1–(4-bromophenyl)-1H-1,2,3-triazol-4-yl)methyl)-4-methoxy-3-sulfamoylbenzamide]
952 | 5370 | 768 | 8930 |  |  |  |  | COc1ccccc1-n1cc(CNC(=O)c2ccc(OC)c(S(N)(=O)=O)c2)nn1 [6z, 4-Methoxy-N-((1–(2-methoxyphenyl)-1H-1,2,3-triazol-4-yl)methyl)-3-sulfamoylbenzamide]
